From PubChem BioAssay (NCI)
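A five-concentration, 48-hour dose response in 96-well plates underlies each endpoint, interpolated linearly between surrounding concentrations. Here, GI50 denotes the concentration required for 50% inhibition of growth. TGI: concentration producing complete growth inhibition.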

Key:
Assay in all cases: growth of human tumour cells (NCI), 48 h
786-0 renal = test system: 786-0 renal
A498 renal = test system: A498 renal
A549 NSCLC = test system: A549 NSCLC
ACHN renal = test system: ACHN renal
BT-549 breast = test system: BT-549 breast
CAKI-1 renal = test system: CAKI-1 renal
CCRF-CEM leukemia = test system: CCRF-CEM leukemia
COLO 205 colon = test system: COLO 205 colon
DU-145 prostate = test system: DU-145 prostate
EKVX NSCLC = test system: EKVX NSCLC
HCC-2998 colon = test system: HCC-2998 colon
HCT-116 colon = test system: HCT-116 colon
HCT-15 colon = test system: HCT-15 colon
HL-60(TB) leukemia = test system: HL-60(TB) leukemia
HOP-62 NSCLC = test system: HOP-62 NSCLC
HOP-92 NSCLC = test system: HOP-92 NSCLC
HS 578T breast = test system: HS 578T breast
HT29 colon = test system: HT29 colon
IGROV1 ovarian = test system: IGROV1 ovarian
K-562 leukemia = test system: K-562 leukemia
KM12 colon = test system: KM12 colon
LOX IMVI melanoma = test system: LOX IMVI melanoma
M14 melanoma = test system: M14 melanoma
MALME-3M melanoma = test system: MALME-3M melanoma
MCF7 breast = test system: MCF7 breast
MDA-MB-231 breast = test system: MDA-MB-231 breast
MDA-MB-435 = test system: MDA-MB-435
MOLT-4 leukemia = test system: MOLT-4 leukemia
NCI-H226 lung = test system: NCI-H226 lung
NCI-H23 lung = test system: NCI-H23 lung
NCI-H460 lung = test system: NCI-H460 lung
NCI-H522 lung = test system: NCI-H522 lung
NCI/ADR-RES ovarian = test system: NCI/ADR-RES ovarian
OVCAR-3 ovarian = test system: OVCAR-3 ovarian
OVCAR-4 ovarian = test system: OVCAR-4 ovarian
OVCAR-5 ovarian = test system: OVCAR-5 ovarian
OVCAR-8 ovarian = test system: OVCAR-8 ovarian
PC-3 prostate = test system: PC-3 prostate
RPMI-8226 leukemia = test system: RPMI-8226 leukemia
RXF 393 renal = test system: RXF 393 renal
SF-268 CNS = test system: SF-268 CNS
SF-295 CNS = test system: SF-295 CNS
SF-539 CNS = test system: SF-539 CNS
SK-MEL-2 melanoma = test system: SK-MEL-2 melanoma
SK-MEL-28 melanoma = test system: SK-MEL-28 melanoma
SK-MEL-5 melanoma = test system: SK-MEL-5 melanoma
SK-OV-3 ovarian = test system: SK-OV-3 ovarian
SN12C renal = test system: SN12C renal
SNB-19 CNS = test system: SNB-19 CNS
SNB-75 CNS = test system: SNB-75 CNS
SR leukemia = test system: SR leukemia
SW-620 colon = test system: SW-620 colon
T-47D breast = test system: T-47D breast
TK-10 renal = test system: TK-10 renal
U251 CNS = test system: U251 CNS
UACC-257 melanoma = test system: UACC-257 melanoma
UACC-62 melanoma = test system: UACC-62 melanoma
UO-31 renal = test system: UO-31 renal

`O=C1C(=O)c2ccccc2C(O)=C1CCCc1ccc(C2CCCCCC2)cc1` gave a GI50 (786-0 renal) of 0.465 µM, a TGI (786-0 renal) of 17 µM and a GI50 (A498 renal) of 0.349 µM. For the same compound, the TGI (A498 renal) was 13.1 µM, the GI50 (A549 NSCLC) was 0.664 µM and the TGI (A549 NSCLC) was 17.4 µM. For the same compound, the GI50 (ACHN renal) was 0.703 µM, the TGI (ACHN renal) was greater than 100 µM and the GI50 (BT-549 breast) was 1.14 µM. For the same compound, the TGI (BT-549 breast) was 19.5 µM, the GI50 (CAKI-1 renal) was 0.432 µM and the TGI (CAKI-1 renal) was 26 µM. It also gave a GI50 (CCRF-CEM leukemia) of 1.16 µM, a TGI (CCRF-CEM leukemia) greater than 100 µM and a GI50 (COLO 205 colon) of 4.9 µM. The TGI (COLO 205 colon) was 20 µM, the GI50 (DU-145 prostate) was 0.72 µM and the TGI (DU-145 prostate) was 34.3 µM. It also gave a GI50 (EKVX NSCLC) of 0.939 µM, a TGI (EKVX NSCLC) of 50.6 µM and a GI50 (HCC-2998 colon) of 0.863 µM. The TGI (HCC-2998 colon) was 22.7 µM, the GI50 (HCT-116 colon) was 0.426 µM and the TGI (HCT-116 colon) was 13.3 µM. For the same compound, the GI50 (HCT-15 colon) was 0.539 µM, the TGI (HCT-15 colon) was greater than 85.9 µM and the GI50 (HL-60(TB) leukemia) was 0.698 µM. For the same compound, the TGI (HL-60(TB) leukemia) was 11.1 µM, the GI50 (HOP-62 NSCLC) was 1.27 µM and the TGI (HOP-62 NSCLC) was 27.3 µM. The GI50 (HOP-92 NSCLC) was 3.01 µM, the TGI (HOP-92 NSCLC) was 24.9 µM and the GI50 (HS 578T breast) was 4.84 µM. For the same compound, the TGI (HS 578T breast) was 57.8 µM, the GI50 (HT29 colon) was 4.6 µM and the TGI (HT29 colon) was 27.8 µM. For the same compound, the GI50 (IGROV1 ovarian) was 0.486 µM, the TGI (IGROV1 ovarian) was 5.89 µM and the GI50 (K-562 leukemia) was 0.447 µM. It also gave a TGI (K-562 leukemia) greater than 34.8 µM, a GI50 (KM12 colon) of 0.903 µM and a TGI (KM12 colon) of 17.2 µM. It also gave a GI50 (LOX IMVI melanoma) of 0.322 µM, a TGI (LOX IMVI melanoma) of 10.5 µM and a GI50 (M14 melanoma) of 1.86 µM. It also gave a TGI (M14 melanoma) of 21 µM, a GI50 (MALME-3M melanoma) of 0.816 µM and a TGI (MALME-3M melanoma) of 22.6 µM. The GI50 (MCF7 breast) was 0.513 µM, the TGI (MCF7 breast) was greater than 49 µM and the GI50 (MDA-MB-231 breast) was 5.76 µM. It also gave a TGI (MDA-MB-231 breast) of 42.2 µM, a GI50 (MDA-MB-435) of 0.608 µM and a TGI (MDA-MB-435) of 48.2 µM. It also gave a GI50 (MOLT-4 leukemia) of 0.618 µM, a TGI (MOLT-4 leukemia) greater than 32.1 µM and a GI50 (NCI-H226 lung) of 2.2 µM. It also gave a TGI (NCI-H226 lung) of 31.7 µM, a GI50 (NCI-H23 lung) of 0.649 µM and a TGI (NCI-H23 lung) of 15.8 µM. The GI50 (NCI-H460 lung) was 0.361 µM, the TGI (NCI-H460 lung) was 13.4 µM and the GI50 (NCI-H522 lung) was 2.64 µM. The TGI (NCI-H522 lung) was 32.7 µM, the GI50 (NCI/ADR-RES ovarian) was 0.702 µM and the TGI (NCI/ADR-RES ovarian) was 11.9 µM. The GI50 (OVCAR-3 ovarian) was 0.781 µM, the TGI (OVCAR-3 ovarian) was 16.3 µM and the GI50 (OVCAR-4 ovarian) was 1.02 µM. The TGI (OVCAR-4 ovarian) was greater than 100 µM, the GI50 (OVCAR-5 ovarian) was 19.8 µM and the TGI (OVCAR-5 ovarian) was greater than 100 µM. The GI50 (OVCAR-8 ovarian) was 1.62 µM, the TGI (OVCAR-8 ovarian) was 41.7 µM and the GI50 (PC-3 prostate) was 0.542 µM. For the same compound, the TGI (PC-3 prostate) was greater than 42.4 µM, the GI50 (RPMI-8226 leukemia) was 0.463 µM and the TGI (RPMI-8226 leukemia) was 13.9 µM. The GI50 (RXF 393 renal) was 10.2 µM, the TGI (RXF 393 renal) was 41.7 µM and the GI50 (SF-268 CNS) was 0.625 µM. For the same compound, the TGI (SF-268 CNS) was 26.7 µM, the GI50 (SF-295 CNS) was 0.558 µM and the TGI (SF-295 CNS) was 30.2 µM. The GI50 (SF-539 CNS) was 2.56 µM, the TGI (SF-539 CNS) was greater than 74.7 µM and the GI50 (SK-MEL-2 melanoma) was 1.12 µM. It also gave a TGI (SK-MEL-2 melanoma) of 21.4 µM, a GI50 (SK-MEL-28 melanoma) of 5.04 µM and a TGI (SK-MEL-28 melanoma) greater than 93.3 µM. It also gave a GI50 (SK-MEL-5 melanoma) of 0.445 µM, a TGI (SK-MEL-5 melanoma) of 11.5 µM and a GI50 (SK-OV-3 ovarian) of 2.85 µM. For the same compound, the TGI (SK-OV-3 ovarian) was 54.6 µM, the GI50 (SN12C renal) was 2.12 µM and the TGI (SN12C renal) was greater than 100 µM. For the same compound, the GI50 (SNB-19 CNS) was 0.803 µM, the TGI (SNB-19 CNS) was greater than 100 µM and the GI50 (SNB-75 CNS) was 2.5 µM. It also gave a TGI (SNB-75 CNS) of 52.2 µM, a GI50 (SR leukemia) of 1.77 µM and a TGI (SR leukemia) greater than 100 µM. For the same compound, the GI50 (SW-620 colon) was 0.576 µM, the TGI (SW-620 colon) was 33.2 µM and the GI50 (T-47D breast) was 3.46 µM. It also gave a TGI (T-47D breast) greater than 45.8 µM, a GI50 (TK-10 renal) of 3.14 µM and a TGI (TK-10 renal) of 57 µM. For the same compound, the GI50 (U251 CNS) was 0.687 µM, the TGI (U251 CNS) was 25.3 µM and the GI50 (UACC-257 melanoma) was 0.662 µM. The TGI (UACC-257 melanoma) was greater than 23.3 µM, the GI50 (UACC-62 melanoma) was 0.718 µM and the TGI (UACC-62 melanoma) was 21.2 µM. For the same compound, the GI50 (UO-31 renal) was 0.612 µM and the TGI (UO-31 renal) was 8.94 µM.
